From US4029671A, “3-[(5-nitro-2-imidazolyl)pyrazol-5-yl]oxamic acid derivatives” (priority 1976, dated 1977)
Structures can show the parent of a compound that is named as a salt.

Assays:
Assay type in all cases: cell-based
[1] = system: Eubacterium aerofaciens 1235; assay: Agar dilution susceptibility of anaerobic bacteria (Chart 1); conditions: agar dilution, 37° C., Eubacterium aerofaciens 1235
[2] = system: Peptostreptococcus intermedius 1264; assay: as above; conditions: agar dilution, 37° C., Peptostreptococcus intermedius 1264
[3] = system: Propionibacterium acnes 79; assay: as above; conditions: Cutibacterium acnes, 79, 24 h, read-out: 24 Hr. MIC
[4] = system: Bacteroides melaninogenicus 1856/28; assay: as above; conditions: agar dilution, 37° C., Bacteroides melaninogenicus 1856/28
[5] = system: Bacteroides vulgatis 1211; assay: as above; conditions: agar dilution, 37° C., Bacteroides vulgatis 1211
[6] = system: Peptostreptococcus anaerobius 1428; assay: as above; conditions: agar dilution, 37° C., Peptostreptococcus anaerobius 1428
[7] = system: Bacteroides corrodens 1874; assay: as above; conditions: agar dilution, 37° C., Bacteroides corrodens 1874
[8] = system: Bacteroides melaninogenicus 2736; assay: as above; conditions: agar dilution, 37° C., Bacteroides melaninogenicus 2736
[9] = system: Actinomyces israelii W855; assay: as above; conditions: Actinomyces israelii, W855, 24 h, read-out: 24 Hr. MIC, agar dilution, 37° C.
Peptococcus prevoti 1281 = assay: as above; conditions: agar dilution, 37° C.
[10] = system: Peptococcus asaccharolyticus 1302; assay: as above; conditions: agar dilution, 37° C.; Peptococcus asaccharolyticus 1302; ammonium salt
[11] = system: Clostridium septicum 1128; assay: as above; conditions: 37° C.
Experimental: The susceptibility of anaerobic bacteria, both gram positive and gram negative, to a representative number of the novel compounds of this application was determined using the agar dilution method. The bacteria used were isolated from patients hospitalized at the Indiana Univerisity Medical Center. The isolates were identified in the anaerobe laboratory of the Medical Center by the criteria established by Dowell et al., Laboratory Methods in Anaerobic Bacteriology. Public Health Serv. Publ. NO. 1803 (1968) [Center for Disease Control, Atlanta, Ga.]; and by Smith et al., The Pathogenic Anaerobic Bacteria, pages 96- 136 (1968) [Charles C. Thomas, Publisher, Springfield, Ill.]. All the organisms were maintained in chopped meat glucose medium (Scott Labs) at room temperature.
The method used for the agar dilution tests was based on the studies of Sutter et al., Antimicrob. Ag. Chemother. 3, 188-193 (1973). The strains of anaerobic bacteria were grown in 16×× 120 mm. tubes for 16 to 18 hours in Thioglycolate medium without indicator-- 135C (Becton, Dickinson and Co.), to which was added 5 mcg. of hemin per milliliter prior to autoclaving, plus 1 mg. of sodium bicarbonate and 0.1 mcg. of filter-sterilized menadione per milliliter after autoclaving. The strains were adjusted to the turbidity of the No. 1 McFarland standard in Thioglycolate medium without indicator-- 135C containing an additional 0.13 percent Bacto-agar (Difco). Each strain was then applied to the surface of the petri plate (100 mm× 15 mm.) by means of a replicator.
For the agar dilution studies, two-fold dilutions of the test compounds were prepared in deionized water to which was then added laked sheep blood and filter-sterilized menadione so the concentrations after the agar dilution were 5 percent and 10 mcg./ml. respectively. An equal volume of double strength Brucella agar (Becton, Dickinson and Co.) was mixed with each dilution in a water bath held at 50° C. and then poured onto the petri dishes.
All of the procedures were done inside a plastic glove box, except for the incubation of the growth tubes and the pouring of the plates. After the plates hardened, they were put inside the glove box for a minimum of 2 hours before they were inoculated. Generally, the glove box procedures of Aranki et al., Applied Microbiology 17, 568-576 (1969), were followed, but the following modifications were used. Dry materials were introduced into the glove box by evacuating the lock to 28 inches of mercury and filling once with nitrogen gas, followed by evacuating in the same manner and filling with an 80 percent nitrogen plus 10 percent CO2 plus 10 percent hydrogen gas mixture. Liquid media and agar plates were introduced into the glove box by evacuating the lock to 10 inches of mercury and filling with gas four times. The nitrogen gas was used to fill the lock for the first two cycles of evacuation, with the gas mixture described above used for the final two fillings.
All the plates were incubated at 37° C. in Gas Pak jars (Becton, Dickinson and Co.) containing palladium-coated alumina catalysts (reactivated after each use). The results of the agar dilution tests were read after about 24 hours of incubation. The minimum inhibitory concentration (MIC) was recorded as the lowest concentration of test compound at which there was no growth.
The test compounds are identified by the number of the example describing their preparation. The antibiotics clindamycin (C), and erythromycin (E) were also run simultaneously with the novel compounds of this application,for comparison purposes, and the results are included in Chart 1 below.

[12] = system: Fusobacterium symbiosum 1470; assay: as above; conditions: agar dilution, 37° C.; Fusobacterium symbiosum 1470; ammonium salt
[13] = system: Fusobacterium necrophorum 6054A; assay: as above; conditions: agar dilution, 37° C., Fusobacterium necrophorum 6054A
[14] = system: Clostridium perfringens 81; assay: microbe, parasite or virus in culture; conditions: agar dilution, 37° C.
[15] = system: Bacteroides fragilis sp. fragilis 1936B; assay: Agar dilution susceptibility of anaerobic bacteria (Chart 1); conditions: agar dilution, 37° C., Bacteroides fragilis sp. fragilis 1936B
[16] = system: Bacteroides fragilis sp. thetaiotaomicron 1900A; assay: as above; conditions: agar dilution, 37° C.; Bacteroides fragilis sp. thetaiotaomicron 1900A; sodium salt
[17] = system: Bacteroides fragilis sp. fragilis 113; assay: as above; conditions: agar dilution, 37° C.; Bacteroides fragilis sp. fragilis 113; sodium salt
[18] = system: Bacteroides fragilis sp. fragilis 1451; assay: as above; conditions: agar dilution, 37° C.; Bacteroides fragilis sp. fragilis 1451; sodium salt
[19] = system: Bacteroides fragilis sp. vulgatis 1563; assay: as above; conditions: agar dilution, 37° C.; Bacteroides fragilis sp. vulgatis 1563; sodium salt
[20] = system: Bacteroides fragilis sp. fragilis 62; assay: as above; conditions: agar dilution, 37° C.; Bacteroides fragilis sp. fragilis 62; sodium salt
[21] = system: Bacteroides fragilis sp. fragilis 1877; assay: as above; conditions: agar dilution, 37° C.; Bacteroides fragilis sp. fragilis 1877; sodium salt
[22] = system: Bacteroides fragilis sp. thetaiotaomicron 1438; assay: as above; conditions: agar dilution, 37° C.; Bacteroides fragilis sp. thetaiotaomicron 1438; sodium salt
[23] = system: Bacteroides fragilis sp. fragilis 111; assay: as above; conditions: agar dilution, 37° C.; Bacteroides fragilis sp. fragilis 111; sodium salt
[24] = system: Bacteroides fragilis sp. fragilis 108; assay: as above; conditions: agar dilution, 37° C.; Bacteroides fragilis sp. fragilis 108; sodium salt
[25] = system: Bacteroides fragilis sp. fragilis 103; assay: as above; conditions: agar dilution, 37° C.; Bacteroides fragilis sp. fragilis 103; sodium salt
[26] = system: Bacteroides fragilis sp. fragilis 107; assay: as above; conditions: agar dilution, 37° C.; Bacteroides fragilis sp. fragilis 107; sodium salt
[27] = system: Bacteroides fragilis sp. fragilis 2; assay: as above; conditions: agar dilution, 37° C.; Bacteroides fragilis sp. fragilis 2; sodium salt
[28] = system: Bacteroides fragilis sp. fragilis 1470; assay: as above; conditions: agar dilution, 37° C.; Bacteroides fragilis sp. fragilis 1470; sodium salt
[29] = system: Bacteroides fragilis sp. fragilis 110; assay: as above; conditions: agar dilution, 37° C.; Bacteroides fragilis sp. fragilis 110; sodium salt
[30] = system: Bacteroides fragilis sp. fragilis 9; assay: as above; conditions: agar dilution, 37° C.; Bacteroides fragilis sp. fragilis 9; sodium salt
[31] = system: Bacteroides fragilis sp. fragilis 112; assay: as above; conditions: agar dilution, 37° C.; Bacteroides fragilis sp. fragilis 112; sodium salt

In the case of `CCOC(=O)C(=O)Nc1c(C#N)c(-c2ncc([N+](=O)[O-])n2C)nn1C` [Example 4, N-[4-Cyano-1-methyl-3-(1-methyl-5-nitroimidazol-2-yl)pyrazol-5-yl]oxamic acid, ethyl ester, ammonium salt], the “24 Hr. MIC” value ([1]; ammonium salt) is reported as ≤ 0.5 µg/mL, the “24 Hr. MIC” value ([2]; ammonium salt) is reported as ≤ 0.5 µg/mL and the MIC [3] is reported as > 128 µg/mL. For the same compound, the “24 Hr. MIC” value ([4]; ammonium salt) was 1.0 µg/mL, the “24 Hr. MIC” value ([5]; ammonium salt) was ≤ 0.5 µg/mL and the “24 Hr. MIC” value ([6]; ammonium salt) was ≤ 0.5 µg/mL. The “24 Hr. MIC” value ([7]; ammonium salt) was ≤ 0.5 µg/mL, the “24 Hr. MIC” value ([8]; ammonium salt) was ≤ 0.5 µg/mL and the MIC [9] was > 128 µg/mL. The “24 Hr. MIC” value (Peptococcus prevoti 1281; ammonium salt) was 32 µg/mL, the “24 Hr. MIC” value [10] was ≤ 0.5 µg/mL and the “24 Hr. MIC” value ([11]; ammonium salt) was 16 µg/mL. The “24 Hr. MIC” value [12] was ≤ 0.5 µg/mL, the “24 Hr. MIC” value ([13]; ammonium salt) was ≤ 0.5 µg/mL and the “24 Hr. MIC” value ([14]; ammonium salt) was ≤ 0.5 µg/mL. For the same compound, the “24 Hr. MIC” value ([15]; ammonium salt) was ≤ 0.5 µg/mL.

For `Cn1nc(-c2ncc([N+](=O)[O-])n2C)c(C#N)c1NC(=O)C(=O)c1ccccc1` [Example 11, N-[4-Cyano-1-methyl-3-(1-methyl-5-nitroimidazol-2-yl)pyrazol-5-yl]-2-phenylglyoxylamide, sodium salt], the “24 Hr. MIC” value ([1]; sodium salt) was 0.5 µg/mL, the “24 Hr. MIC” value ([2]; sodium salt) was 32 µg/mL and the “24 Hr. MIC” value [16] was 0.125 µg/mL. For the same compound, the “24 Hr. MIC” value ([4]; sodium salt) was 16 µg/mL, the “24 Hr. MIC” value [17] was 0.125 µg/mL and the “24 Hr. MIC” value ([5]; sodium salt) was 1.0 µg/mL. For the same compound, the “24 Hr. MIC” value [18] was 0.125 µg/mL, the “24 Hr. MIC” value [19] was 0.25 µg/mL and the “24 Hr. MIC” value ([6]; sodium salt) was 0.25 µg/mL. For the same compound, the “24 Hr. MIC” value [20] was 0.06 µg/mL, the “24 Hr. MIC” value ([7]; sodium salt) was 0.25 µg/mL and the “24 Hr. MIC” value [21] was 0.06 µg/mL. For the same compound, the “24 Hr. MIC” value ([8]; sodium salt) was ≤ 0.03 µg/mL, the “24 Hr. MIC” value [22] was 0.125 µg/mL and the “24 Hr. MIC” value [23] was 0.06 µg/mL. For the same compound, the “24 Hr. MIC” value [24] was 0.06 µg/mL, the “24 Hr. MIC” value (Peptococcus prevoti 1281; sodium salt) was 2 µg/mL and the “24 Hr. MIC” value [25] was 0.06 µg/mL. The “24 Hr. MIC” value [26] was 0.06 µg/mL, the “24 Hr. MIC” value [27] was 0.06 µg/mL and the “24 Hr. MIC” value ([11]; sodium salt) was 0.25 µg/mL. For the same compound, the “24 Hr. MIC” value ([13]; sodium salt) was 0.25 µg/mL, the “24 Hr. MIC” value [28] was 0.06 µg/mL and the “24 Hr. MIC” value [29] was 0.06 µg/mL. For the same compound, the “24 Hr. MIC” value ([14]; sodium salt) was 0.5 µg/mL, the “24 Hr. MIC” value [30] was 0.06 µg/mL and the “24 Hr. MIC” value [31] was 0.06 µg/mL. For the same compound, the “24 Hr. MIC” value ([15]; sodium salt) was 0.06 µg/mL.
